According to publication PMC5218480 (PLoS ONE, 2017):

Test system: MV-4-11 cells
Test: Gene expression microarray analysis (Affymetrix PrimeView) and GSEA
Assay type: cell-based, human
Design: RFU PODN (11730768_x_at) / Fold change /veh PODN (11730768_x_at) / RFU LINC00158 (11744669_a_at) / Fold change /veh LINC00158 (11744669_a_at) / RFU DUSP10 (11751237_a_at) / Fold change /veh DUSP10 (11751237_a_at) / RFU ID3 (11757404_x_at) / Fold change /veh ID3 (11757404_x_at) / RFU PLEKHG5 (11737974_s_at) / Fold change /veh PLEKHG5 (11737974_s_at) / RFU LRRC4B (11730491_at) / Fold change /veh LRRC4B (11730491_at) / RFU GIMAP4 (11747438_a_at) / Fold change /veh GIMAP4 (11747438_a_at) / RFU KRT8 (11758183_x_at) / Fold change /veh KRT8 (11758183_x_at) / RFU CNN1 (11734310_a_at) / Fold change /veh CNN1 (11734310_a_at) / RFU VPS37D (11726825_at) / Fold change /veh VPS37D (11726825_at) / RFU C10orf10 (11716522_x_at) / Fold change /veh C10orf10 (11716522_x_at) / RFU KIR2DL2 /// KIR2DL4 /// KIR2DL5A /// KIR2DL5B /// KIR2DS1 /// KIR2DS2 /// KIR2DS3 /// KIR2DS4 /// KIR3DL3 /// KIR3DL3 /// KIR3DS1 (11738374_at) / Fold change /veh KIR2DL2 /// KIR2DL4 /// KIR2DL5A /// KIR2DL5B /// KIR2DS1 /// KIR2DS2 /// KIR2DS3 /// KIR2DS4 /// KIR3DL3 /// KIR3DL3 /// KIR3DS1 (11738374_at) / RFU C1QL1 (11718748_at) / Fold change /veh C1QL1 (11718748_at) / RFU TMPRSS4 (11747572_a_at) / Fold change /veh TMPRSS4 (11747572_a_at) / RFU HAMP (11756126_x_at) / Fold change /veh HAMP (11756126_x_at) / RFU RNFT2 (11725882_a_at) / Fold change /veh RNFT2 (11725882_a_at) / RFU NR4A2 (11747474_a_at) / Fold change /veh NR4A2 (11747474_a_at) / RFU ABCC12 (11746883_a_at) / Fold change /veh ABCC12 (11746883_a_at) / RFU TMEM136 (11760407_x_at) / Fold change /veh TMEM136 (11760407_x_at) / RFU CLDN22 /// WWC2 (11732394_at) / Fold change /veh CLDN22 /// WWC2 (11732394_at) / RFU HLA-DPB1 (11760878_x_at) / Fold change /veh HLA-DPB1 (11760878_x_at) / RFU SPINT1 (11716480_a_at) / Fold change /veh SPINT1 (11716480_a_at) / RFU GAP43 (11754022_s_at) / Fold change /veh GAP43 (11754022_s_at) / RFU A4GNT (11735810_at) / Fold change /veh A4GNT (11735810_at) / RFU PRB3 (11715151_x_at) / Fold change /veh PRB3 (11715151_x_at) / RFU TUBB4B (11761932_at) / Fold change /veh TUBB4B (11761932_at) / RFU CAPN14 (11732068_a_at) / Fold change /veh CAPN14 (11732068_a_at) / RFU TMCC2 (11721928_a_at) / Fold change /veh TMCC2 (11721928_a_at) / RFU IRGQ (11745062_a_at) / Fold change /veh IRGQ (11745062_a_at) / RFU FAM174B (11720279_a_at) / Fold change /veh FAM174B (11720279_a_at) / RFU TMPRSS4 (11748680_a_at) / Fold change /veh TMPRSS4 (11748680_a_at) / RFU FAM212B (11763350_a_at) / Fold change /veh FAM212B (11763350_a_at) / RFU PLEKHG5 (11743358_a_at) / Fold change /veh PLEKHG5 (11743358_a_at) / RFU ZSCAN30 (11745921_a_at) / Fold change /veh ZSCAN30 (11745921_a_at) / RFU CMKLR1 (11741424_a_at) / Fold change /veh CMKLR1 (11741424_a_at) / RFU LOC101060620 /// MAPK8IP1 (11723275_at) / Fold change /veh LOC101060620 /// MAPK8IP1 (11723275_at) / RFU SPTSSB (11747773_x_at) / Fold change /veh SPTSSB (11747773_x_at) / RFU PRSS12 (11739890_at) / Fold change /veh PRSS12 (11739890_at) / RFU BIN1 (11741810_x_at) / Fold change /veh BIN1 (11741810_x_at) / RFU WNT11 (11732464_a_at) / Fold change /veh WNT11 (11732464_a_at) / RFU C10orf10 (11716521_a_at) / Fold change /veh C10orf10 (11716521_a_at) / RFU C5orf56 (11738089_at) / Fold change /veh C5orf56 (11738089_at) / RFU CYB561 (11721691_x_at) / Fold change /veh CYB561 (11721691_x_at) / RFU ANKRD19P (11752326_a_at) / Fold change /veh ANKRD19P (11752326_a_at) / RFU OR2T12 /// OR2T33 /// OR2T8 (11738714_s_at) / Fold change /veh OR2T12 /// OR2T33 /// OR2T8 (11738714_s_at) / RFU VCAN (11748164_a_at) / Fold change /veh VCAN (11748164_a_at) / RFU JSRP1 (11732532_at) / Fold change /veh JSRP1 (11732532_at) / RFU KRTAP10-11 (11738290_x_at) / Fold change /veh KRTAP10-11 (11738290_x_at) / RFU MYO3A (11730013_a_at) / Fold change /veh MYO3A (11730013_a_at) / RFU EBF3 (11725865_a_at) / Fold change /veh EBF3 (11725865_a_at) / RFU CAMK2N1 (11719241_x_at) / Fold change /veh CAMK2N1 (11719241_x_at) / RFU C5orf56 (11738088_a_at) / Fold change /veh C5orf56 (11738088_a_at) / RFU OLFML3 (11715873_a_at) / Fold change /veh OLFML3 (11715873_a_at) / RFU LOC100653217 /// NTM (11731650_a_at) / Fold change /veh LOC100653217 /// NTM (11731650_a_at) / RFU MAPK11 (11762145_a_at) / Fold change /veh MAPK11 (11762145_a_at) / RFU FIZ1 (11724087_x_at) / Fold change /veh FIZ1 (11724087_x_at) / RFU OASL (11726364_x_at) / Fold change /veh OASL (11726364_x_at) / RFU SOX15 (11748057_x_at) / Fold change /veh SOX15 (11748057_x_at) / RFU CD79A (11719716_a_at) / Fold change /veh CD79A (11719716_a_at) / RFU HIST1H1D (11736915_at) / Fold change /veh HIST1H1D (11736915_at) / RFU CASKIN2 (11723855_a_at) / Fold change /veh CASKIN2 (11723855_a_at) / RFU LOC730098 (11760151_x_at) / Fold change /veh LOC730098 (11760151_x_at) / RFU OR4N2 (11742367_at) / Fold change /veh OR4N2 (11742367_at) / RFU PRRT2 (11749266_a_at) / Fold change /veh PRRT2 (11749266_a_at) / RFU SNX32 (11753110_a_at) / Fold change /veh SNX32 (11753110_a_at) / RFU CDHR5 (11726645_a_at) / Fold change /veh CDHR5 (11726645_a_at) / RFU RCAN1 (11760418_a_at) / Fold change /veh RCAN1 (11760418_a_at) / RFU FAM167A (11723789_a_at) / Fold change /veh FAM167A (11723789_a_at) / RFU FAM26E (11764081_at) / Fold change /veh FAM26E (11764081_at) / RFU ISYNA1 (11749810_s_at) / Fold change /veh ISYNA1 (11749810_s_at) / RFU ACY1 (11761880_at) / Fold change /veh ACY1 (11761880_at) / RFU 11764098_at / Fold change /veh 11764098_at / RFU SAMD14 (11745864_x_at) / Fold change /veh SAMD14 (11745864_x_at) / RFU NPB (11741838_a_at) / Fold change /veh NPB (11741838_a_at) / RFU TMPRSS6 (11731388_a_at) / Fold change /veh TMPRSS6 (11731388_a_at) / RFU KRTAP10-2 (11738614_at) / Fold change /veh KRTAP10-2 (11738614_at) / RFU ARHGAP8 /// PRR5-ARHGAP8 (11727945_x_at) / Fold change /veh ARHGAP8 /// PRR5-ARHGAP8 (11727945_x_at) / RFU KRTAP5-7 /// NADSYN1 (11734609_at) / Fold change /veh KRTAP5-7 /// NADSYN1 (11734609_at) / RFU RASL12 (11751679_a_at) / Fold change /veh RASL12 (11751679_a_at) / RFU CDKN2B (11736163_a_at) / Fold change /veh CDKN2B (11736163_a_at) / RFU PRF1 (11729649_at) / Fold change /veh PRF1 (11729649_at) / RFU, ZNF638 /// ZNF638-IT1 / Fold change vs veh, ZNF638 /// ZNF638-IT1 / RFU, PANK3 / Fold change vs veh, PANK3 / RFU, SH3YL1 / Fold change vs veh, SH3YL1 / RFU, ZEB2 / Fold change vs veh, ZEB2 / RFU, NRIP1 / Fold change vs veh, NRIP1 / RFU, PTTG1IP / Fold change vs veh, PTTG1IP / RFU, CAPN2 / Fold change vs veh, CAPN2 / RFU, MED14 / Fold change vs veh, MED14 / RFU, SNORA58 / Fold change vs veh, SNORA58 / RFU, C1orf63 / Fold change vs veh, C1orf63 / RFU, LRRFIP1 / Fold change vs veh, LRRFIP1 / RFU, NDUFAF7 / Fold change vs veh, NDUFAF7 / RFU, SLC12A2 / Fold change vs veh, SLC12A2 / RFU, IBTK / Fold change vs veh, IBTK / RFU, ESF1 / Fold change vs veh, ESF1 / Fold change vs veh, TMEM50B / RFU, TAOK1 / Fold change vs veh, TAOK1 / RFU, ACBD3 / Fold change vs veh, ACBD3 / RFU, TMA16 / Fold change vs veh, TMA16 / RFU, RWDD3 / Fold change vs veh, RWDD3 / RFU, BCAT1 / Fold change vs veh, BCAT1 / RFU, EDEM3 / Fold change vs veh, EDEM3 / RFU, TMEM33 / Fold change vs veh, TMEM33 / RFU, WDR75 / Fold change vs veh, WDR75 / RFU, AHCTF1 / Fold change vs veh, AHCTF1 / RFU, TFRC / Fold change vs veh, TFRC / RFU, ZDHHC17 / Fold change vs veh, ZDHHC17 / RFU, NOM1 / Fold change vs veh, NOM1 / RFU, ARL8B / Fold change vs veh, ARL8B / RFU, ZBTB11 / Fold change vs veh, ZBTB11 / RFU, TAMM41 / Fold change vs veh, TAMM41 / RFU, KIAA1704 /// LOC100996395 / Fold change vs veh, KIAA1704 /// LOC100996395 / RFU, ING1 / Fold change vs veh, ING1 / RFU, TRMT61B / Fold change vs veh, TRMT61B / RFU, FUBP3 / Fold change vs veh, FUBP3 / RFU, TP53 / Fold change vs veh, TP53 / RFU, TNKS2 / Fold change vs veh, TNKS2 / RFU, ZFP14 / Fold change vs veh, ZFP14 / RFU, ACTR2 / Fold change vs veh, ACTR2 / RFU, PPP3R1 / Fold change vs veh, PPP3R1 / RFU, PIK3R1 / Fold change vs veh, PIK3R1 / RFU, HNRNPA1 / Fold change vs veh, HNRNPA1 / RFU, RNF170 / Fold change vs veh, RNF170 / RFU, ZNF28 / Fold change vs veh, ZNF28 / RFU, RNGTT / Fold change vs veh, RNGTT / RFU, OGT / Fold change vs veh, OGT / RFU, BRD1 / Fold change vs veh, BRD1 / RFU, MARS / Fold change vs veh, MARS / RFU, ZNF655 / Fold change vs veh, ZNF655 / RFU, FAHD1 / Fold change vs veh, FAHD1 / RFU, BDP1 / Fold change vs veh, BDP1 / RFU, LRRCC1 / Fold change vs veh, LRRCC1 / RFU, ARID1A / Fold change vs veh, ARID1A / RFU, ZNF146 / Fold change vs veh, ZNF146 / RFU, ZNF330 / Fold change vs veh, ZNF330 / RFU, GPN3 / Fold change vs veh, GPN3 / RFU, C9orf123 / Fold change vs veh, C9orf123 / RFU, N4BP2L2 / Fold change vs veh, N4BP2L2 / RFU, ARFIP1 / Fold change vs veh, ARFIP1 / RFU, FAM179B / Fold change vs veh, FAM179B / RFU, BCL10 / Fold change vs veh, BCL10 / RFU, UHRF1BP1L / Fold change vs veh, UHRF1BP1L / RFU, BET1 / Fold change vs veh, BET1 / RFU, CNOT2 / Fold change vs veh, CNOT2 / RFU, ZNF268 / Fold change vs veh, ZNF268 / Fold change vs veh, ZNF507 / RFU, DGCR2 / Fold change vs veh, DGCR2 / RFU, WDSUB1 / Fold change vs veh, WDSUB1 / Fold change vs veh, HSP90B1 /// MIR3652 / RFU, ADSS / Fold change vs veh, ADSS / RFU, GK / Fold change vs veh, GK / RFU, ZNF148 / Fold change vs veh, ZNF148 / RFU, TAF9 / Fold change vs veh, TAF9 / RFU, SLC1A5 / Fold change vs veh, SLC1A5 / RFU, SLMO2 / Fold change vs veh, SLMO2 / RFU, ABCC4 / Fold change vs veh, ABCC4 / RFU, LOC101060439 /// RAP1B / Fold change vs veh, LOC101060439 /// RAP1B / RFU, RFX7 / Fold change vs veh, RFX7 / RFU, GTPBP10 / Fold change vs veh, GTPBP10 / RFU, CNEP1R1 / Fold change vs veh, CNEP1R1 / RFU, BIVM-ERCC5 /// ERCC5 / Fold change vs veh, BIVM-ERCC5 /// ERCC5 / RFU, ILF3 / Fold change vs veh, ILF3 / RFU 11762660_at / Fold change /veh 11762660_at / RFU VCAN (11757783_s_at) / Fold change /veh VCAN (11757783_s_at) / RFU DDX43 (11728927_at) / Fold change /veh DDX43 (11728927_at) / RFU KRT8 (11758188_x_at) / Fold change /veh KRT8 (11758188_x_at) / RFU NKD1 (11759106_at) / Fold change /veh NKD1 (11759106_at) / RFU SRD5A1 (11742802_a_at) / Fold change /veh SRD5A1 (11742802_a_at) / RFU TPSAB1 /// TPSB2 (11721975_s_at) / Fold change /veh TPSAB1 /// TPSB2 (11721975_s_at) / RFU GSTM3 (11746129_a_at) / Fold change /veh GSTM3 (11746129_a_at) / RFU IL23R (11737362_x_at) / Fold change /veh IL23R (11737362_x_at) / RFU TMEM51 (11727254_a_at) / Fold change /veh TMEM51 (11727254_a_at) / RFU PIWIL2 (11732686_x_at) / Fold change /veh PIWIL2 (11732686_x_at) / RFU ORM1 (11744905_x_at) / Fold change /veh ORM1 (11744905_x_at) / RFU CCDC152 (11743942_at) / Fold change /veh CCDC152 (11743942_at) / RFU ECM1 (11717891_a_at) / Fold change /veh ECM1 (11717891_a_at) / RFU IL23R (11748794_a_at) / Fold change /veh IL23R (11748794_a_at) / RFU TNFAIP8L3 (11732012_x_at) / Fold change /veh TNFAIP8L3 (11732012_x_at) / RFU MBOAT4 (11741988_at) / Fold change /veh MBOAT4 (11741988_at) / RFU 11764193_at / Fold change /veh 11764193_at / RFU TMEM53 (11763286_at) / Fold change /veh TMEM53 (11763286_at) / RFU MAGEB2 (11727129_at) / Fold change /veh MAGEB2 (11727129_at) / RFU TMEM200A (11744735_a_at) / Fold change /veh TMEM200A (11744735_a_at) / RFU CCDC152 (11751479_a_at) / Fold change /veh CCDC152 (11751479_a_at) / RFU FAM211A (11726209_a_at) / Fold change /veh FAM211A (11726209_a_at) / RFU RGS16 (11746705_a_at) / Fold change /veh RGS16 (11746705_a_at) / RFU VCAN (11755009_s_at) / Fold change /veh VCAN (11755009_s_at) / RFU RHOB (11743442_s_at) / Fold change /veh RHOB (11743442_s_at) / RFU RGS16 (11720943_a_at) / Fold change /veh RGS16 (11720943_a_at) / RFU RGS16 (11720944_at) / Fold change /veh RGS16 (11720944_at) / RFU, VPS4B / Fold change vs veh, VPS4B / RFU, CREB1 / Fold change vs veh, CREB1 / RFU, DNAJC13 / Fold change vs veh, DNAJC13 / RFU, GNAQ / Fold change vs veh, GNAQ / RFU, CDK5R1 / Fold change vs veh, CDK5R1 / RFU, ZRANB3 / Fold change vs veh, ZRANB3 / RFU, CUL4A / Fold change vs veh, CUL4A / RFU, CCNY / Fold change vs veh, CCNY / RFU, UFL1 / Fold change vs veh, UFL1 / RFU, COG3 / Fold change vs veh, COG3 / RFU, DIAPH2 / Fold change vs veh, DIAPH2 / RFU, SKA2 / Fold change vs veh, SKA2 / RFU, AFF3 / Fold change vs veh, AFF3 / RFU, LMF1 / Fold change vs veh, LMF1 / RFU, IPO11 / Fold change vs veh, IPO11 / RFU, DFFB / Fold change vs veh, DFFB / RFU, FOXP1 / Fold change vs veh, FOXP1 / RFU, CARD8 / Fold change vs veh, CARD8 / RFU, STRN3 / Fold change vs veh, STRN3 / RFU, ADK / Fold change vs veh, ADK / RFU, RASSF2 / Fold change vs veh, RASSF2 / RFU, WIPF1 / Fold change vs veh, WIPF1 / RFU, LARP1B / Fold change vs veh, LARP1B / RFU, RASA1 / Fold change vs veh, RASA1 / RFU, RB1 / Fold change vs veh, RB1 / RFU, PPFIA1 / Fold change vs veh, PPFIA1 / RFU, MAT2A / Fold change vs veh, MAT2A / RFU, CCT5 / Fold change vs veh, CCT5 / RFU, WDR92 / Fold change vs veh, WDR92 / RFU, CUX1 / Fold change vs veh, CUX1 / RFU, TTC7A / Fold change vs veh, TTC7A / RFU, TMEM135 / Fold change vs veh, TMEM135 / RFU, DEPTOR / Fold change vs veh, DEPTOR / RFU, CPM / Fold change vs veh, CPM / RFU, DNAJB6 / Fold change vs veh, DNAJB6 / RFU, CACNA2D3 / Fold change vs veh, CACNA2D3 / RFU, DTX4 / Fold change vs veh, DTX4 / RFU, TFCP2 / Fold change vs veh, TFCP2 / RFU, GMCL1 /// GMCL1P1 / Fold change vs veh, GMCL1 /// GMCL1P1 / RFU, AEBP2 / Fold change vs veh, AEBP2 / RFU, SNHG1 /// SNORD22 /// SNORD25 /// SNORD26 /// SNORD27 /// SNORD28 /// SNORD29 /// SNORD31 / Fold change vs veh, SNHG1 /// SNORD22 /// SNORD25 /// SNORD26 /// SNORD27 /// SNORD28 /// SNORD29 /// SNORD31 / Fold change (Aza/veh), C12orf56 (ProbeSet 11735607_a_at) / Fold change (ACY-1035/veh), C12orf56 (ProbeSet 11735607_a_at) / Fold change (Aza/veh), FGFR1OP (ProbeSet 11751329_s_at) / Fold change (ACY-1035/veh), FGFR1OP (ProbeSet 11751329_s_at) / Fold change (Aza/veh), VPS36 (ProbeSet 11739960_a_at) / Fold change (ACY-1035/veh), VPS36 (ProbeSet 11739960_a_at) / RFU SYPL1 (11715823_x_at) / Fold change /veh SYPL1 (11715823_x_at) / RFU IGFBP7 (11715501_s_at) / Fold change /veh IGFBP7 (11715501_s_at) / RFU REEP3 (11722064_at) / Fold change /veh REEP3 (11722064_at) / RFU IGLL1 (11728026_x_at) / Fold change /veh IGLL1 (11728026_x_at): dose or concentration left out as unconfirmed
Details: MV-4-11 cells, 48 hours

Nc1ccc(-c2cccs2)cc1NC(=O)c1ccc2c(c1)cc(C1CC1)n2CCN1CCOCC1 [ACY-1035]
Fold change /veh OR2T12 /// OR2T33 /// OR2T8 (11738714_s_at): 1.06
